Reference: patent US20160367623A1, “AGONISTS OF GUANYLATE CYCLASE USEFUL FOR THE TREATMENT OF GASTROINTESTINAL DISORDERS, INFLAMMATION, CANCER AND OTHER DISORDERS” (priority 2015, published 2016)
Bridge positions count the residues as written; N and C are the ends. Ends that are not written are not given here.

System: patients with chronic idiopathic constipation (CIC)
Assay: Second phase 3 CIC trial: change from baseline in stool consistency (BSFS)
Assay type: in vivo, human
Details: 3 mg
[1] = Post-Treatment Week 13, All Randomized (includes Duplicate Patients)
[2] = Post-Treatment Week 13, ITT Population
[3] = Post-Treatment Week 13, ITT Population-Excluding Duplicate Patients
[4] = Post-Treatment Week 14, All Randomized (includes Duplicate Patients)
[5] = Post-Treatment Week 14, ITT Population
[6] = Post-Treatment Week 14, ITT Population-Excluding Duplicate Patients
[7] = Week 1, All Randomized (includes Duplicate Patients)
[8] = Week 1, ITT Population-Excluding Duplicate Patients
[9] = Week 2, All Randomized (includes Duplicate Patients)
[10] = Week 2, ITT Population-Excluding Duplicate Patients
[11] = Week 3, All Randomized (includes Duplicate Patients)
[12] = Week 3, ITT Population-Excluding Duplicate Patients
[13] = Week 4, All Randomized (includes Duplicate Patients)
[14] = Week 4, ITT Population-Excluding Duplicate Patients
[15] = Week 5, All Randomized (includes Duplicate Patients)
[16] = Week 5, ITT Population-Excluding Duplicate Patients
[17] = Week 6, All Randomized (includes Duplicate Patients)
[18] = Week 6, ITT Population-Excluding Duplicate Patients

Substance: Asn^1-Asp^2-Glu^3-Cys^4-Glu^5-Leu^6-Cys^7-Val^8-Asn^9-Val^10-Ala^11-Cys^12-Thr^13-Gly^14-Cys^15-Leu^16 (NDECELCVNVACTGCL; disulfide 4-12, 7-15) [Plecanatide, uroguanylin analogue, guanylate cyclase-C agonist; (C4:C12, C7:C15) bicycle peptide]
- Change from Baseline in Stool Consistency, Difference from Placebo [1]: 0.24
- Change from Baseline in Stool Consistency, LS Mean (SE) [1]: 1.23 (0.069)
- Change from Baseline in Stool Consistency, Mean (SD) [1]: 1.27 (1.358)
- Change from Baseline in Stool Consistency, Difference from Placebo [2]: 0.23
- Change from Baseline in Stool Consistency, LS Mean (SE) [2]: 1.22 (0.071)
- Change from Baseline in Stool Consistency, Mean (SD) [2]: 1.25 (1.368)
- Change from Baseline in Stool Consistency, Difference from Placebo [3]: 0.23
- Change from Baseline in Stool Consistency, LS Mean (SE) [3]: 1.22 (0.072)
- Change from Baseline in Stool Consistency, Mean (SD) [3]: 1.25 (1.374)
- Change from Baseline in Stool Consistency, Difference from Placebo [4]: 0.15
- Change from Baseline in Stool Consistency, LS Mean (SE) [4]: 1.14 (0.071)
- Change from Baseline in Stool Consistency, Mean (SD) [4]: 1.19 (1.393)
- Change from Baseline in Stool Consistency, Difference from Placebo [5]: 0.14
- Change from Baseline in Stool Consistency, LS Mean (SE) [5]: 1.15 (0.073)
- Change from Baseline in Stool Consistency, Mean (SD) [5]: 1.19 (1.402)
- Change from Baseline in Stool Consistency, Difference from Placebo [6]: 0.14
- Change from Baseline in Stool Consistency, LS Mean (SE) [6]: 1.15 (0.074)
- Change from Baseline in Stool Consistency, Mean (SD) [6]: 1.18 (1.408)
- Change from Baseline in Stool Consistency, Difference from Placebo [7]: 0.68
- Change from Baseline in Stool Consistency, LS Mean (SE) [7]: 1.26 (0.070)
- Change from Baseline in Stool Consistency, Mean (SD) [7]: 1.38 (1.464)
- Change from Baseline in Stool Consistency, Difference from Placebo (Week 1, ITT Population): 0.68
- Change from Baseline in Stool Consistency, LS Mean (SE) (Week 1, ITT Population): 1.28 (0.072)
- Change from Baseline in Stool Consistency, Mean (SD) (Week 1, ITT Population): 1.39 (1.479)
- Change from Baseline in Stool Consistency, Difference from Placebo [8]: 0.69
- Change from Baseline in Stool Consistency, LS Mean (SE) [8]: 1.30 (0.073)
- Change from Baseline in Stool Consistency, Mean (SD) [8]: 1.39 (1.469)
- Change from Baseline in Stool Consistency, Difference from Placebo [9]: 0.66
- Change from Baseline in Stool Consistency, LS Mean (SE) [9]: 1.35 (0.070)
- Change from Baseline in Stool Consistency, Mean (SD) [9]: 1.46 (1.566)
- Change from Baseline in Stool Consistency, Difference from Placebo (Week 2, ITT Population): 0.66
- Change from Baseline in Stool Consistency, LS Mean (SE) (Week 2, ITT Population): 1.38 (0.073)
- Change from Baseline in Stool Consistency, Mean (SD) (Week 2, ITT Population): 1.46 (1.583)
- Change from Baseline in Stool Consistency, Difference from Placebo [10]: 0.65
- Change from Baseline in Stool Consistency, LS Mean (SE) [10]: 1.39 (0.073)
- Change from Baseline in Stool Consistency, Mean (SD) [10]: 1.46 (1.578)
- Change from Baseline in Stool Consistency, Difference from Placebo [11]: 0.52
- Change from Baseline in Stool Consistency, LS Mean (SE) [11]: 1.41 (0.070)
- Change from Baseline in Stool Consistency, Mean (SD) [11]: 1.52 (1.570)
- Change from Baseline in Stool Consistency, Difference from Placebo (Week 3, ITT Population): 0.51
- Change from Baseline in Stool Consistency, LS Mean (SE) (Week 3, ITT Population): 1.41 (0.073)
- Change from Baseline in Stool Consistency, Mean (SD) (Week 3, ITT Population): 1.51 (1.573)
- Change from Baseline in Stool Consistency, Difference from Placebo [12]: 0.51
- Change from Baseline in Stool Consistency, LS Mean (SE) [12]: 1.42 (0.074)
- Change from Baseline in Stool Consistency, Mean (SD) [12]: 1.52 (1.578)
- Change from Baseline in Stool Consistency, Difference from Placebo [13]: 0.58
- Change from Baseline in Stool Consistency, LS Mean (SE) [13]: 1.45 (0.071)
- Change from Baseline in Stool Consistency, Mean (SD) [13]: 1.56 (1.509)
- Change from Baseline in Stool Consistency, Difference from Placebo (Week 4, ITT Population): 0.55
- Change from Baseline in Stool Consistency, LS Mean (SE) (Week 4, ITT Population): 1.45 (0.073)
- Change from Baseline in Stool Consistency, Mean (SD) (Week 4, ITT Population): 1.55 (1.494)
- Change from Baseline in Stool Consistency, Difference from Placebo [14]: 0.54
- Change from Baseline in Stool Consistency, LS Mean (SE) [14]: 1.45 (0.074)
- Change from Baseline in Stool Consistency, Mean (SD) [14]: 1.56 (1.504)
- Change from Baseline in Stool Consistency, Difference from Placebo [15]: 0.68
- Change from Baseline in Stool Consistency, LS Mean (SE) [15]: 1.53 (0.071)
- Change from Baseline in Stool Consistency, Difference from Placebo (Week 5, ITT Population): 0.68
- Change from Baseline in Stool Consistency, LS Mean (SE) (Week 5, ITT Population): 1.55 (0.074)
- Change from Baseline in Stool Consistency, Mean (SD) (Week 5, ITT Population): 1.69 (1.462)
- Change from Baseline in Stool Consistency, Difference from Placebo [16]: 0.67
- Change from Baseline in Stool Consistency, LS Mean (SE) [16]: 1.56 (0.075)
- Change from Baseline in Stool Consistency, Mean (SD) [16]: 1.70 (1.469)
- Change from Baseline in Stool Consistency, Difference from Placebo [17]: 0.74
- Change from Baseline in Stool Consistency, LS Mean (SE) [17]: 1.55 (0.072)
- Change from Baseline in Stool Consistency, Difference from Placebo (Week 6, ITT Population): 0.74
- Change from Baseline in Stool Consistency, LS Mean (SE) (Week 6, ITT Population): 1.56 (0.074)
- Change from Baseline in Stool Consistency, Mean (SD) (Week 6, ITT Population): 1.67 (1.533)
- Change from Baseline in Stool Consistency, Difference from Placebo [18]: 0.73
- Change from Baseline in Stool Consistency, LS Mean (SE) [18]: 1.56 (0.075)
- Change from Baseline in Stool Consistency, Mean (SD) [18]: 1.67 (1.529)
